Test: Modulation of capsid assembly in HBV infected in human HepG2.2.15 cells assessed as inhibition of viral DNA replication preincubated for 3 days followed by replacement with fresh medium containing compound and measured after 3 days by QuantiGene assay

| SMILES | EC50 |
| --- | --- |
| CCCON(C)C(=O)c1n[nH]c2c1CN(C(=O)Nc1cccc(Cl)c1)CC2 [US10189835, Compound 795] | 210 nM |
| C[C@@H]1Cc2nn3c(c2CN1C(=O)Nc1ccc(F)c(C#N)c1)C(=O)N(C)O[C@@H](COCC(F)F)C3 | 5 nM |
| CN1O[C@H](CO)Cn2nc3c(c2C1=O)CN(C(=O)Nc1ccc(F)c(Cl)c1)CC3 | 15 nM |
| CN(OC1CCOC1)C(=O)c1n[nH]c2c1CN(C(=O)Nc1cccc(Cl)c1)CC2 (centres undefined) [US10189835, Compound 910] | 300 nM |
| C[C@@H]1Cc2nn3c(c2CN1C(=O)Nc1ccc(F)c(C#N)c1)C(=O)N(C)OCC3 | 5.3 nM |
| C[C@@H]1Cc2nn3c(c2CN1C(=O)Nc1ccc(F)c(C#N)c1)C(=O)N(C)O[C@@H](C(=O)N(C)CC(F)F)C3 | 5.3 nM |
| CN(OC1COC1)C(=O)c1n[nH]c2c1CN(C(=O)Nc1cccc(Cl)c1)CC2 | 24 nM |
| CON(C)C(=O)c1n[nH]c2c1CN(C(=O)Nc1cccc(Cl)c1)[C@H](C)C2 | 330 nM |
| CCON(C)C(=O)c1n[nH]c2c1CN(C(=O)Nc1cccc(Cl)c1)CC2 [US10189835, Compound 599] | 63 nM |
| C[C@@H]1Cc2nn3c(c2CN1C(=O)Nc1ccc(F)c(C#N)c1)C(=O)N(C)O[C@@H](CF)C3 | 6 nM |
| CON(C)C(=O)c1n[nH]c2c1CN(C(=O)Nc1cccc(Cl)c1)CC2 [US10189835, Compound 434] | 54 nM |
| CC(C)ON(C)C(=O)c1n[nH]c2c1CN(C(=O)Nc1cccc(Cl)c1)CC2 [US10189835, Compound 600] | 57 nM |
| CN(OCCO)C(=O)c1n[nH]c2c1CN(C(=O)Nc1cccc(Cl)c1)CC2 [US10189835, Compound 796] | 155 nM |
| O=C(Nc1cccc(Cl)c1)N1CCc2[nH]nc(C(=O)N3CCCO3)c2C1 [US10189835, Compound 699] | 120 nM |
| CN(OC1CCC1)C(=O)c1n[nH]c2c1CN(C(=O)Nc1cccc(Cl)c1)CC2 [US10189835, Compound 805] | 97 nM |
| CCOC(=O)c1n[nH]c2c1CN(C(=O)Nc1cccc(Cl)c1)CC2 | 260 nM |
| C[C@@H]1Cc2nn3c(c2CN1C(=O)Nc1ccc(F)c(C#N)c1)C(=O)N(C)O[C@@H](CO)C3 | 7.3 nM |

| SMILES | EC50 |
| --- | --- |
| C[C@@H]1Cc2nn3c(c2CN1C(=O)Nc1ccc(F)c(Cl)c1)C(=O)N(C)O[C@@H](CN(C)C)C3 | 21 nM |
| CN(OC1CCCOC1)C(=O)c1n[nH]c2c1CN(C(=O)Nc1cccc(Cl)c1)CC2 (centres undefined) | 370 nM |
| C[C@@H]1Cc2nn3c(c2CN1C(=O)Nc1ccc(F)c(Cl)c1)C(=O)N(C)O[C@@H](CO)C3 | 4 nM |
| C[C@H]1Cc2nn3c(c2CN1C(=O)Nc1ccc(F)c(Cl)c1)C(=O)N(C)O[C@@H](CO)C3 | 54 nM |
| CN1CC(ON(C)C(=O)c2n[nH]c3c2CN(C(=O)Nc2cccc(Cl)c2)CC3)C1 [US10189835, Compound 912] | 200 nM |
| CN1O[C@@H](CO)Cn2nc3c(c2C1=O)CN(C(=O)Nc1ccc(F)c(Cl)c1)CC3 | 4 nM |
| C[C@@H]1Cc2nn3c(c2CN1C(=O)Nc1ccc(F)c(C(F)(F)F)c1)C(=O)N(C)O[C@@H](CO)C3 | 2.7 nM |
| Cc1cc(NC(=O)N2Cc3c(nn4c3C(=O)N(C)O[C@@H](CO)C4)C[C@H]2C)ccc1F | 3.4 nM |
| CCN(OC)C(=O)c1n[nH]c2c1CN(C(=O)Nc1cccc(Cl)c1)CC2 [US10189835, Compound 594] | 90 nM |
| O=C(Nc1cccc(Cl)c1)N1CCc2[nH]nc(C(=O)N3CCCCO3)c2C1 | 100 nM |
| CON(C)C(=O)c1n[nH]c2c1CN(C(=O)Nc1cccc(Cl)c1)[C@@H](C)C2 | 31 nM |
| CONC(=O)c1n[nH]c2c1CN(C(=O)Nc1cccc(Cl)c1)CC2 | 400 nM |
| CCCC(=O)c1n[nH]c2c1CN(C(=O)Nc1cccc(Cl)c1)CC2 [US10189835, Compound 561] | 68 nM |
| C[C@H]1Cc2nn3c(c2CN1C(=O)Nc1ccc(F)c(Cl)c1)C(=O)N(C)O[C@H](CO)C3 | 216 nM |
| CON(C(=O)c1n[nH]c2c1CN(C(=O)Nc1cccc(Cl)c1)CC2)C(C)C [US10189835, Compound 595] | 210 nM |
| C[C@@H]1Cc2nn3c(c2CN1C(=O)Nc1ccc(F)c(Cl)c1)C(=O)N(C)O[C@H](CO)C3 | 4 nM |
| CCN(C)C(=O)c1n[nH]c2c1CN(C(=O)Nc1cccc(Cl)c1)CC2 | 410 nM |

Reference: BindingDB's records for doi:10.1016/j.bmcl.2021.128353 (Novira Therapeutics, 2021)
